Results on 20 compounds are retold here after patent US20150237857A1, “ANTIBACTERIAL INHIBITORS” (MCMASTER UNIVERSITY, priority 2012, published 2015).

One assay deals with recombinant E. coli BioA (Escherichia coli, UniProt P12995). Put plainly: BioA inhibition through a feeding assay of a bioA auxotroph. It is filed as biochemical. The note with it: relative to DMSO control. The protocol:
To determine if the step catalyzed by BioA was the target of this inhibitor, the inhibitory activity of MAC-0013772 against recombinant E. coli BioA was assayed through a feeding assay of a bioA auxotroph.

The test system of the next assay is Mycobacteria smegmatis. Put plainly: MIC against Mycobacteria smegmatis in absence and presence of biotin. It is filed as cell-based.
A further assay concerns E. coli MG1655. Put plainly: Minimum inhibitory concentration (MIC) determination. The note with it: for MIC: Escherichia coli.
Where [1] appears, read: absence of biotin, read-out: MIC −bio.
Setting [2] is: presence of 2 nM of biotin, read-out: MIC +bio.
The mark [3] stands for this setting: MG1655, 16 h, read-out: MIC +bio, presence of 2 nM of biotin.
Where [4] appears, read: MG1655, read-out: MIC −bio, absence of biotin.

The structures appear in SMILES notation. Values after ≈ are worked out from the molar mass of the structure shown. Like-named read-outs stand apart in the source and are kept apart here. Where only a bound is given, the exact number is not on record here.

recombinant E. coli BioA, sequence (P12995 whole entry): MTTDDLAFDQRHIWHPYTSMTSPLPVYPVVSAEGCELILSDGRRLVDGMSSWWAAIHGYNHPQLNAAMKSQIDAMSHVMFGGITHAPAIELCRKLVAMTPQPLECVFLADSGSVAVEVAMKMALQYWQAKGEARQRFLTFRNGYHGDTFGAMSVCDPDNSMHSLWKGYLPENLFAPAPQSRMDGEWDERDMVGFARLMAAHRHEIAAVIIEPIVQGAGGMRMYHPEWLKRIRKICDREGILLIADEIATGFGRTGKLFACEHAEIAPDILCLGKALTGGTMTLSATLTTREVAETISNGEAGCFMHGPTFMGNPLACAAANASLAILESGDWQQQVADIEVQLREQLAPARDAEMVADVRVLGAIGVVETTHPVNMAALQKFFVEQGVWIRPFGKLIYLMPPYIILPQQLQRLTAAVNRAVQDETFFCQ
Experimental for E. coli MG1655: The MIC values were determined in liquid minimal media and minimal media supplemented with amino acids, vitamins and nucleobases.
A single colony of E. coli MG1655 was grown overnight in 5 ml of M9 minimal media. The saturated culture was diluted 1/50 in fresh minimal media and allowed to grow until the OD600 reached ˜0.4. […] After mixing of the bacterial culture with the compounds, the OD600 of the plates was read using Envision to account for background absorbance. The plates were then incubated in a 37° C. stationary incubator for 16 hours before measuring their OD600. After subtracting any background absorbance contributed by colored or precipitated compounds, the MIC was defined as the lowest concentration of antibiotic that inhibits visible growth.

Turning to `NNC(=O)CSc1ccccc1F` [Compound 1d, 2-(2-fluorophenylthio)acetohydrazide], the inhibition – broadly, the relative decrease from the control value, in per cent – at 1 µM at recombinant E. coli BioA stood at 36%. For the same compound, at recombinant E. coli BioA, the inhibition at 10 µM worked out at 100%. Also, the “antibacterial potency against M. smegmatis compared with MAC-0013772 (in words)” value with Mycobacteria smegmatis is on record as “potencies similar to that of MAC-0013772”. Also, the MIC (as a rule, the least concentration at which growth counts as inhibited) in the assay on Mycobacteria smegmatis (setting [1]) was 4 µg/mL; in the assay on Mycobacteria smegmatis (setting [2]), > 256 µg/mL; in the assay on E. coli MG1655 (setting [3]), > 256 µg/mL; with E. coli MG1655 (setting [4]), 32 µg/mL (≈ 160 µM).

For `NNC(=O)CS` [Compound 2b], the inhibition at 1 µM on recombinant E. coli BioA stood at 20%. Further, at recombinant E. coli BioA, the inhibition at 10 µM is 34%. For the same compound, the minimal inhibitory concentration (MIC) in the assay with Mycobacteria smegmatis (setting [1]) was 32 µg/mL; with Mycobacteria smegmatis (setting [2]), 32 µg/mL; in the assay on E. coli MG1655 (setting [3]) it was 256 µg/mL; in the assay with E. coli MG1655 (setting [4]), 256 µg/mL (≈ 2410 µM).

On to `CC(=O)CSc1ccccc1[N+](=O)[O-]` [Compound 1m], for which the inhibition at 1 µM on recombinant E. coli BioA was found to be 0%. Moreover, the inhibition at 10 µM on recombinant E. coli BioA is 0%. Besides, the MIC in the assay with Mycobacteria smegmatis (setting [1]) is 256 µg/mL; in the assay with Mycobacteria smegmatis (setting [2]), 256 µg/mL; in the assay with E. coli MG1655 (setting [3]), > 256 µg/mL; in the assay with E. coli MG1655 (setting [4]) it was > 256 µg/mL.

As to `NNC(=O)CSCc1ccccc1` [Compound 2g, 2-(benzylthio)acetohydrazide], the inhibition at 1 µM on recombinant E. coli BioA was 60%. Further, the inhibition at 10 µM at recombinant E. coli BioA came out at 100%. Also, the “antibacterial potency against M. smegmatis compared with MAC-0013772 (in words)” value in the assay with Mycobacteria smegmatis was “potencies similar to that of MAC-0013772”. Also, the MIC was 8 µg/mL with Mycobacteria smegmatis (setting [1]), > 256 µg/mL in the assay with Mycobacteria smegmatis (setting [2]), > 256 µg/mL in the assay on E. coli MG1655 (setting [3]) and 64 µg/mL (≈ 326 µM) in the assay on E. coli MG1655 (setting [4]).

With `CSCC(=O)NN` [Compound 2a], at recombinant E. coli BioA, the inhibition at 1 µM turned out to be 50%. Besides, the inhibition at 10 µM at recombinant E. coli BioA came out at 64%. The minimum inhibitory concentration (MIC) was 32 µg/mL with Mycobacteria smegmatis (setting [1]), 32 µg/mL in the assay on Mycobacteria smegmatis (setting [2]), 64 µg/mL in the assay on E. coli MG1655 (setting [3]) and 64 µg/mL (≈ 533 µM) with E. coli MG1655 (setting [4]). The “suppression of growth inhibition in the presence of biotin (in words)” value in the assay with E. coli MG1655 (presence of biotin) is reported as “not suppressed”.

`NNC(=O)CSc1ccc2ccccc2c1` [Compound 2h, 2-(naphthalen-2-ylthio)acetohydrazide]: at recombinant E. coli BioA, the inhibition at 1 µM stood at 71%. Also, the inhibition at 10 µM on recombinant E. coli BioA came to 100%. Also, the MIC in the assay on Mycobacteria smegmatis (setting [1]) was 32 µg/mL; in the assay with Mycobacteria smegmatis (setting [2]) it was > 256 µg/mL; in the assay on E. coli MG1655 (setting [3]), > 256 µg/mL; in the assay with E. coli MG1655 (setting [4]), > 256 µg/mL.

Regarding `NNC(=O)CSc1cccc([N+](=O)[O-])c1` [Compound 1a, 2-(3-nitrophenylthio)acetohydrazide], the inhibition at 1 µM at recombinant E. coli BioA came out at 42%. The inhibition at 10 µM on recombinant E. coli BioA was determined as 84%. For the same compound, the MIC in the assay with Mycobacteria smegmatis (setting [1]) was 16 µg/mL; in the assay on Mycobacteria smegmatis (setting [2]), > 256 µg/mL; with E. coli MG1655 (setting [3]) it was > 256 µg/mL; with E. coli MG1655 (setting [4]) it was 256 µg/mL (≈ 1130 µM).

`NNC(=O)C1Cc2ccccc2S1` (stereo not drawn) [Compound 2f, 2,3-dihydrobenzo[b]thiophene-2-carbohydrazide]: on recombinant E. coli BioA, the inhibition at 1 µM stood at 15%. For the same compound, the inhibition at 10 µM at recombinant E. coli BioA turned out to be 69%. For the same compound, the MIC was 64 µg/mL in the assay with Mycobacteria smegmatis (setting [1]), > 256 µg/mL with Mycobacteria smegmatis (setting [2]), > 256 µg/mL with E. coli MG1655 (setting [3]) and > 256 µg/mL with E. coli MG1655 (setting [4]).

With `NNC(=O)CSc1ccccc1O` [Compound 1f, 2-(2-hydroxyphenylthio)acetohydrazide], on recombinant E. coli BioA, the inhibition at 1 µM was 32%. The inhibition at 10 µM on recombinant E. coli BioA came out at 70%. For the same compound, the MIC stood at 32 µg/mL in the assay on Mycobacteria smegmatis (setting [1]), 256 µg/mL in the assay with Mycobacteria smegmatis (setting [2]), 256 µg/mL with E. coli MG1655 (setting [3]) and 256 µg/mL (≈ 1290 µM) in the assay with E. coli MG1655 (setting [4]).

In the case of `NNC(=O)CSc1ccc([N+](=O)[O-])cc1` [Compound 1b, 2-(4-nitrophenylthio)acetohydrazide], at recombinant E. coli BioA, the inhibition at 1 µM was found to be 66% and the inhibition at 10 µM is 100%. Further, the “antibacterial potency against M. smegmatis compared with MAC-0013772 (in words)” value in the assay on Mycobacteria smegmatis was “potencies similar to that of MAC-0013772”. In addition, the MIC in the assay on Mycobacteria smegmatis (setting [1]) was 4 µg/mL. Also, in the assay with Mycobacteria smegmatis (setting [2]), the MIC was > 256 µg/mL.

As for `NC(=O)CSc1ccccc1[N+](=O)[O-]` [Compound 1l], on recombinant E. coli BioA, the inhibition at 1 µM was found to be 0%. Also, the inhibition at 10 µM on recombinant E. coli BioA was 0%. In addition, the MIC is 128 µg/mL with Mycobacteria smegmatis (setting [1]), > 256 µg/mL in the assay with Mycobacteria smegmatis (setting [2]), > 256 µg/mL in the assay with E. coli MG1655 (setting [3]) and > 256 µg/mL with E. coli MG1655 (setting [4]).

For `CCC(=O)CSc1ccccc1[N+](=O)[O-]` [Compound 1k], the inhibition at 1 µM on recombinant E. coli BioA is 0%. Besides, at recombinant E. coli BioA, the inhibition at 10 µM worked out at 0%. Further, the MIC in the assay with Mycobacteria smegmatis (setting [1]), in the assay on Mycobacteria smegmatis (setting [2]), with E. coli MG1655 (setting [3]) and in the assay on E. coli MG1655 (setting [4]) was > 256 µg/mL each time.

As for `CC(=O)NNC(=O)CSc1ccc([N+](=O)[O-])cc1` [Compound 1j], the inhibition at 1 µM on recombinant E. coli BioA stood at 0%. On recombinant E. coli BioA, the inhibition at 10 µM came out at 0%. Also, the MIC in the assay on Mycobacteria smegmatis (setting [1]), in the assay on Mycobacteria smegmatis (setting [2]), with E. coli MG1655 (setting [3]) and with E. coli MG1655 (setting [4]) was > 256 µg/mL in each case.

Turning to `NNC(=O)CSc1ccncc1` [Compound 2i, 2-(pyridin-4-ylthio)acetohydrazide], the inhibition at 1 µM on recombinant E. coli BioA was determined as 32%. Moreover, at recombinant E. coli BioA, the inhibition at 10 µM stood at 77%. In addition, the “antibacterial potency against M. smegmatis compared with MAC-0013772 (in words)” value in the assay with Mycobacteria smegmatis is “potencies similar to that of MAC-0013772”. Also, the MIC was 8 µg/mL in the assay with Mycobacteria smegmatis (setting [1]), 128 µg/mL in the assay with Mycobacteria smegmatis (setting [2]), > 256 µg/mL with E. coli MG1655 (setting [3]) and 64 µg/mL (≈ 349 µM) in the assay on E. coli MG1655 (setting [4]).

Turning to `NNC(=O)CSc1ccccc1N` [Compound 1g, 2-(2-aminophenylthio)acetohydrazide], the inhibition at 1 µM on recombinant E. coli BioA stood at 58%. Moreover, on recombinant E. coli BioA, the inhibition at 10 µM came out at 100%. Also, the MIC with Mycobacteria smegmatis (setting [1]) was 32 µg/mL; with Mycobacteria smegmatis (setting [2]), 256 µg/mL; with E. coli MG1655 (setting [3]) it was > 256 µg/mL; in the assay on E. coli MG1655 (setting [4]), 256 µg/mL (≈ 1300 µM).

On to `O=C(O)CSc1ccccc1[N+](=O)[O-]` [Compound 1n], for which, on recombinant E. coli BioA, the inhibition at 1 µM was 0%. Also, the inhibition at 10 µM at recombinant E. coli BioA amounted to 0%. For the same compound, the MIC in the assay on Mycobacteria smegmatis (setting [1]), in the assay with Mycobacteria smegmatis (setting [2]), in the assay with E. coli MG1655 (setting [3]) and with E. coli MG1655 (setting [4]) was > 256 µg/mL throughout.

With `CCCC(=O)NN` [Compound 2c], the inhibition at 1 µM on recombinant E. coli BioA was determined as 1%. Also, the inhibition at 10 µM at recombinant E. coli BioA turned out to be 40%. Besides, the MIC in the assay on Mycobacteria smegmatis (read-out: MIC +bio) was 64 µg/mL; in the assay with Mycobacteria smegmatis (read-out: MIC −bio), 64 µg/mL; in the assay with E. coli MG1655 (MG1655, read-out: MIC −bio), > 256 µg/mL.

`Cc1ccccc1SCC(=O)NN` [Compound 1h, 2-(o-tolylthio)acetohydrazide]: the inhibition at 1 µM at recombinant E. coli BioA was 81%. Besides, the inhibition at 10 µM on recombinant E. coli BioA was 100%. Besides, the “antibacterial potency against M. smegmatis compared with MAC-0013772 (in words)” value with Mycobacteria smegmatis was “potencies similar to that of MAC-0013772”. In addition, the minimum inhibitory concentration (MIC) was 4 µg/mL in the assay with Mycobacteria smegmatis (setting [1]), > 256 µg/mL with Mycobacteria smegmatis (setting [2]), > 256 µg/mL in the assay on E. coli MG1655 (setting [3]) and 16 µg/mL (≈ 81.5 µM) in the assay with E. coli MG1655 (setting [4]). Further, in the assay with E. coli MG1655, the “antibacterial activity against E. coli (in words)” value was “does not gravely alter antibacterial activity”.

For the compound `NNC(=O)CSc1ccccc1Cl` [Compound 1e, 2-(2-chlorophenylthio) acetohydrazide], the inhibition at 1 µM at recombinant E. coli BioA is 63%. For the same compound, the inhibition at 10 µM on recombinant E. coli BioA came to 100%. Moreover, in the assay with Mycobacteria smegmatis, the “antibacterial potency against M. smegmatis compared with MAC-0013772 (in words)” value is reported as “potencies similar to that of MAC-0013772”. Also, the MIC was 4 µg/mL in the assay on Mycobacteria smegmatis (setting [1]), > 256 µg/mL with Mycobacteria smegmatis (setting [2]), > 256 µg/mL in the assay on E. coli MG1655 (setting [3]) and 16 µg/mL (≈ 73.8 µM) in the assay on E. coli MG1655 (setting [4]). Further, the “antibacterial activity against E. coli (in words)” value with E. coli MG1655 was “does not gravely alter antibacterial activity”.

For the compound `CCC(=O)NN` [Compound 2d], on recombinant E. coli BioA, the inhibition at 1 µM amounted to 0%. In addition, the inhibition at 10 µM on recombinant E. coli BioA is 8%. In addition, the MIC was 64 µg/mL in the assay on Mycobacteria smegmatis (setting [1]), 64 µg/mL in the assay with Mycobacteria smegmatis (setting [2]), > 256 µg/mL in the assay on E. coli MG1655 (setting [3]) and > 256 µg/mL with E. coli MG1655 (setting [4]).
